Ends that are not written are not given here.
Columns and labels:
[1] = target: T1, TRPV1 (Mus musculus, UniProt Q704Y3)
[2] = target: T2, TRPV1 (Homo sapiens, UniProt Q8NER1); conditions: applied topically; cited from earlier work
[3] = test system: TrpV1 expressing afferents; experiment: in vivo calcium imaging of injury-activated trigeminal ganglion neurons, topical capsaicin; parameters: species or system mouse; conditions: topical 5 mM capsaicin after incision injury, 32 of 38 neurons
Excerpt: FIG. 9A is a micrograph of calcium imaging field in trigeminal ganglion of VGlut2^Cre; Rosa26^LSL-GCαMP6f mouse, with neurons active after injury highlighted. Scale bar is 100 μm. […] (The VGlut2^Cre; Rosa26^LSL-GCαMP6f mouse is generated by crossing a VGlut2-Cre mice with a […] mice, therefore the resulting double transgenic VGlut2^Cre; Rosa26^LSL-GCαMP6f mice express tD-Tomato (a red fluorescence protein) in all the sensory neurons but not in any other type of neuron. This allows for labeling and imaging of only sensory neurons in vivo.)
The inventors assessed effect of topical TRPV1 agonist capsaicin applied after acute injury and wound in a mouse model in vivo. […] Capsaicin, a TRPV1 agonist, was later applied to the same region to determine that an unexpected high number of neurons, […] of neurons activated by injury were also TRPV1-positive.

[4] = target: TRPV4 (Mus musculus, UniProt Q9EPK8); conditions: 30 μM; GSK 1016790A 1 μM
[5] = target: rTRPV1 (Rattus norvegicus, UniProt O35433)
Experimental: To identify if the antagonists were peptides, we purified saliva through a 30 kDa filter to eliminate large proteins and then used reverse-phase HPLC to fractionate the samples (FIG. 1B). […] The resultant 37 1 mL-fractions were dried, reconstituted in HBSS and screened on HEK cells transiently transfected with TRPV1 (FIG. 1C).

[6] = target: T1, TRPV1; conditions: Von frey filaments
[7] = target: TRPA1 (Mus musculus, UniProt Q8BLA8); conditions: 30 μM; AITC 50 μM
[8] = target: T1, TRPV1; experiment: whole cell patch clamp of capsaicin-induced currents in primary murine DRG neurons; format: cell-based; parameters: capsaicin-induced currents in primary murine DRG neurons using whole cell patch clamp; endogenous in cells; host or cells: primary murine dorsal root ganglion (DRG) neurons; conditions: for block of capsaicin-induced currents by opiorphin family peptides: DRG neurons
[9] = target: TRPM8 (Mus musculus, UniProt Q8R4D5); conditions: 30 μM; Menthol 100 μM
[10] = test system: TRPV1 pore turret domain mutants (G603-N626); conditions: deletion and substitution mutations
[11] = test system: TRPV1; conditions: pH 5.6; 1 μM
[12] = target: T1, TRPV1; conditions: Hot-plate test 52±0.1° C.
[13] = target: rat TRPV1 (Rattus norvegicus, UniProt O35433); conditions: 1 μM
[14] = target: T2, TRPV1; conditions: HEK293 cells transiently expressing hTRPV1
[15] = target: T1, TRPV1; experiment: capsaicin-induced calcium flux in primary murine DRG neurons (plate-based/FLIPR); format: cell-based; parameters: capsaicin-induced currents in primary murine DRG neurons using whole cell patch clamp; endogenous in cells; host or cells: primary murine dorsal root ganglion (DRG) neurons; conditions: DRG neuron, read-out: inhibition of capsaicin-induced calcium flux
Excerpt: To test the possibility that saliva may inhibit the TRPV1 heat pain receptor^12-14 in nociceptors, we collected samples of whole saliva from four human donors and ran a screen on primary murine dorsal root ganglion (DRG) neurons.

[16] = target: P2X3 (Mus musculus, UniProt Q3UR32); conditions: 30 μM; α,β-methylene-ATP 30 μM
[17] = target: T1, TRPV1; conditions: 5 nmol/mouse with capsaicin 5 nmol/mouse, paw injection
Excerpt: Injection of capsaicin into a paw produces a short bout of biting and licking.

T1 sequence (Q704Y3 whole entry): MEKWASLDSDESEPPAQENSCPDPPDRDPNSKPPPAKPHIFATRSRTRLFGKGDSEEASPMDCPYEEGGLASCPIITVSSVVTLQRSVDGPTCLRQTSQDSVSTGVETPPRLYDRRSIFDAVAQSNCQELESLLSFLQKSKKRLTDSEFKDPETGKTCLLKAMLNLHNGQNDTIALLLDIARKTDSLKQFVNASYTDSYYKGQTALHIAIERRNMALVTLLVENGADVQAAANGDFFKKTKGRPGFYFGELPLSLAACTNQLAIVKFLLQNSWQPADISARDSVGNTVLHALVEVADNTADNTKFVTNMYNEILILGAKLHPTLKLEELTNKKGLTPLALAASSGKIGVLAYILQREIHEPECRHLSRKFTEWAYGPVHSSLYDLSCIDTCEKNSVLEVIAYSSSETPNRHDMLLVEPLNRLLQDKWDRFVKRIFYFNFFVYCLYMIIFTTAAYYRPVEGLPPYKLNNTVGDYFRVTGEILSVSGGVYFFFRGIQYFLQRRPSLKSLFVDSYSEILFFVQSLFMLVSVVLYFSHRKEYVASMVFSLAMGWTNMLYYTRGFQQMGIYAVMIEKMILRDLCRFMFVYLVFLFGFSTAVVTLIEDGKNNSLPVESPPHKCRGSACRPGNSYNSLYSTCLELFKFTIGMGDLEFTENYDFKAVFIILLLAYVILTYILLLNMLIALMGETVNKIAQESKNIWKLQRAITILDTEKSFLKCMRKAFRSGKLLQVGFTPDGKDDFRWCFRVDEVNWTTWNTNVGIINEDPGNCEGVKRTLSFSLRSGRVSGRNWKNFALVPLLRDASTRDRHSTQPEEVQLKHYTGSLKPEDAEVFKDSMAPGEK
rTRPV1, sequence (O35433 whole entry): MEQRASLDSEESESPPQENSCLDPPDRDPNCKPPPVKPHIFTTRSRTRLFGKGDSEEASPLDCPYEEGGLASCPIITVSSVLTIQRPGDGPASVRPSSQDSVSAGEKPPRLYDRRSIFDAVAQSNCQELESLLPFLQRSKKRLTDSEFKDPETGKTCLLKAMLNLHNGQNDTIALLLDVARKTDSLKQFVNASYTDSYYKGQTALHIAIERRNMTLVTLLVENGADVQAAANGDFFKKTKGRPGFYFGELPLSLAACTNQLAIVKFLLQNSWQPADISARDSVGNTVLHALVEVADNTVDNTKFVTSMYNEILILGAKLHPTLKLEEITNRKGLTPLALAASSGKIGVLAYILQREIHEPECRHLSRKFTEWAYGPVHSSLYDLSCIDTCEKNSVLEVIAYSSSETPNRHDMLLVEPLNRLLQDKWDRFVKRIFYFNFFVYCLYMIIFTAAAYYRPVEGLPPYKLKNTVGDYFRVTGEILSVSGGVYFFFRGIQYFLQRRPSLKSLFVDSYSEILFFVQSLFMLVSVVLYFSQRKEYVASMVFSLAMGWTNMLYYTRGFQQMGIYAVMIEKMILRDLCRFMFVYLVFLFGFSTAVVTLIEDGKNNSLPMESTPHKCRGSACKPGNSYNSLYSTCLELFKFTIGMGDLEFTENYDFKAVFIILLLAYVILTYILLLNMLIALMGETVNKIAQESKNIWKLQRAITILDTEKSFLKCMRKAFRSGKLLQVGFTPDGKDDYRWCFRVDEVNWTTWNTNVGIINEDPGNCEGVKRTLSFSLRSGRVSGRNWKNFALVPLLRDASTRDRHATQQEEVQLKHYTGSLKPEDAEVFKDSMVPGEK
rat TRPV1, sequence (O35433 whole entry): as above
T2 sequence (Q8NER1 whole entry): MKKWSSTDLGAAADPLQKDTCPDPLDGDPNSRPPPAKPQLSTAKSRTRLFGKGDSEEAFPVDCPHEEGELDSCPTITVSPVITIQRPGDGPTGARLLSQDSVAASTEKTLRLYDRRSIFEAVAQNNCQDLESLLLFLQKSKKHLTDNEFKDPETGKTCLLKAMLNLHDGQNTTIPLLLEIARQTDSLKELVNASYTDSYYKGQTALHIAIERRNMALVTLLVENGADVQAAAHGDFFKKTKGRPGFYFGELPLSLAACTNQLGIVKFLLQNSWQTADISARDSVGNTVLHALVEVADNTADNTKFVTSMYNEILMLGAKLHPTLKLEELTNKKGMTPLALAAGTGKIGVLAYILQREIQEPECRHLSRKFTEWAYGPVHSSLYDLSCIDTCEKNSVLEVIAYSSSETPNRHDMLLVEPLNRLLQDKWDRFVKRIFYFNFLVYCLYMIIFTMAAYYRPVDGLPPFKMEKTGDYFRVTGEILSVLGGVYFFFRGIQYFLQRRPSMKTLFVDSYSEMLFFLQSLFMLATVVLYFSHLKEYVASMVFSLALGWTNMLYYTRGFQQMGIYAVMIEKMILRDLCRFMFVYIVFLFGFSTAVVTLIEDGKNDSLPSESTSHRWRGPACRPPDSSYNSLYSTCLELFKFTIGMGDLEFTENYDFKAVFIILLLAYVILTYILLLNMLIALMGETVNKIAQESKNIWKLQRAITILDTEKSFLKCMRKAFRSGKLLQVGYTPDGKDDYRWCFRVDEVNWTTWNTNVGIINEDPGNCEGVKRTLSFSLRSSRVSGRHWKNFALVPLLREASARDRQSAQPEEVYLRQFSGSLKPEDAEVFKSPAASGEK
P2X3, sequence (Q3UR32 whole entry): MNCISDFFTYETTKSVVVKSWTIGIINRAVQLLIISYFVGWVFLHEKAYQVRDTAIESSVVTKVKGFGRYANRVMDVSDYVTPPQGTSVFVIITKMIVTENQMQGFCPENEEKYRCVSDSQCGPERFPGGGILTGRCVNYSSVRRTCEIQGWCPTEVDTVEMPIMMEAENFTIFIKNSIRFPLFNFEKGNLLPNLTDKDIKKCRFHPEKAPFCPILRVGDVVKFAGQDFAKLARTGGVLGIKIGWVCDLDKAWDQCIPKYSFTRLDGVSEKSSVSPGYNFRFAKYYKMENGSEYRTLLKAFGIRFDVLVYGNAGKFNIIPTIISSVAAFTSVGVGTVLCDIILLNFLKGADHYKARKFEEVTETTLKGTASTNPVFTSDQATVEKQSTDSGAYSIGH
TRPM8, sequence (Q8R4D5 whole entry, the tested form may be a part): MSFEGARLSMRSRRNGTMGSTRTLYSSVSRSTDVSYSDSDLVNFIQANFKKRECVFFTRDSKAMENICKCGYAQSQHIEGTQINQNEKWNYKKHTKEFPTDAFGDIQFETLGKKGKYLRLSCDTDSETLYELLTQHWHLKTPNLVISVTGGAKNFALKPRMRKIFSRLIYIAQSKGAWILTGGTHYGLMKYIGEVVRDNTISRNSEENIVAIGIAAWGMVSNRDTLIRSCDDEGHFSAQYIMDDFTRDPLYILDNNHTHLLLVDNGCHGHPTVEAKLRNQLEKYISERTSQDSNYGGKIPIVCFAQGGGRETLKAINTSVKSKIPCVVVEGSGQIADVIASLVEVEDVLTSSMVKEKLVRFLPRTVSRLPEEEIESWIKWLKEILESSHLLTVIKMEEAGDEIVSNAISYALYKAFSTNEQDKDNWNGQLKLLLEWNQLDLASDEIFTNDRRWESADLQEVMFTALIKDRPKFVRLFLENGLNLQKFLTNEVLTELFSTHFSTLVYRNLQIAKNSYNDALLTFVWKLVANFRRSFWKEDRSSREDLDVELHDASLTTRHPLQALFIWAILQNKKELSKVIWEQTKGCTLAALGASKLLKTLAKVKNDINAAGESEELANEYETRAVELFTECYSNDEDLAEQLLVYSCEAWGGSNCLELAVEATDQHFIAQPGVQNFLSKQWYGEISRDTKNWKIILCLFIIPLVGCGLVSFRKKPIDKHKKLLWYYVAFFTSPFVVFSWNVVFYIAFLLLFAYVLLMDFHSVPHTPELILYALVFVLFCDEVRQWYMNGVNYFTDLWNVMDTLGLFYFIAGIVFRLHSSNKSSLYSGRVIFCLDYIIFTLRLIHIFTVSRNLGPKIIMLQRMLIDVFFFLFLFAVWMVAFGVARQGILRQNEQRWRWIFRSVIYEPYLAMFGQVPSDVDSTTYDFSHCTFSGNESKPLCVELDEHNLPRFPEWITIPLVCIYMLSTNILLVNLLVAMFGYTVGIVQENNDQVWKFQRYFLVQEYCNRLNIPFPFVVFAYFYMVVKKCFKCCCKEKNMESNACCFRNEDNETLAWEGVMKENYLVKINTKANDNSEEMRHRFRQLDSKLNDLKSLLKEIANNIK
TRPV4, sequence (Q9EPK8 whole entry): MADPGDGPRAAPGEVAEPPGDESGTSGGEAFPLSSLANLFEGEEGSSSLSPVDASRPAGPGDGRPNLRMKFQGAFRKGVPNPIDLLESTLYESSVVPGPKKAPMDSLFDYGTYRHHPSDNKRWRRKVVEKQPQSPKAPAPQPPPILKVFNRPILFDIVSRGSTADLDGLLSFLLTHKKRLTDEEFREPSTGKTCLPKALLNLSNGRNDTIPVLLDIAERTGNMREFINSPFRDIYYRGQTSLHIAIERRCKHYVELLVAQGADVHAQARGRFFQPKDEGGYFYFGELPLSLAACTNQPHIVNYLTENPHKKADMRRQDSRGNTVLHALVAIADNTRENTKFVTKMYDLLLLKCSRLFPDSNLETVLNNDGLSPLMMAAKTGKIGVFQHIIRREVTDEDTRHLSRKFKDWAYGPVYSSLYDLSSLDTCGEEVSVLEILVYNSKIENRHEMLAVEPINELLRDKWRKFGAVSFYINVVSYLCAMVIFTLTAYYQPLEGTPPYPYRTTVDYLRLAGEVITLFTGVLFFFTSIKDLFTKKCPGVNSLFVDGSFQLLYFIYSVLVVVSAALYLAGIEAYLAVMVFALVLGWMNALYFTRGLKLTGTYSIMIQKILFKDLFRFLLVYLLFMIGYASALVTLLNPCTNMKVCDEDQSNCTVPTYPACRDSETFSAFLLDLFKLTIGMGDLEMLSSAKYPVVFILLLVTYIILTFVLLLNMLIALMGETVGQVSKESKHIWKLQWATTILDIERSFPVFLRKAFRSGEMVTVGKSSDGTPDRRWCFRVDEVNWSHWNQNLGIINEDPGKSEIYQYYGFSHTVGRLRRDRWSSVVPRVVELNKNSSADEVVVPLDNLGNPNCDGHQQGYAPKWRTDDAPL

Compound: CC(C)(C)c1ccc(/C=C/C(=O)Nc2ccc3c(c2)OCCO3)cc1 [AMG 9810, (E)-3-(4-t-butylphenyl)-N-(2,3-dihydrobenzo[b][1,4]dioxin-6-yl)acrylamide, reference compound]
- acute licking of superficial paw incision wound ([1]; topical 30 μM, mice): reduced

Compound: O=C(Nc1ccccc1Br)N[C@@H]1CCN(c2ccc(C(F)(F)F)cn2)C1 [SB705498]
- symptomatic benefit for induced itch [2]: not to be of symptomatic benefit

Compound: COc1cc(CNC(=O)CCCC/C=C/C(C)C)ccc1O [capsaicin]
- injury-activated neurons responding to capsaicin [3]: 84%
- injury-activated neurons responding to capsaicin ([3]; listed as Capsaicin): ~86%

Compound: QRFSR [opiorphin]
- licking/biting response to superficial paw incision ([1]; topical 10 μM, 5 s, C57 mice, vs topical saline): eliminated
- inhibition of calcium flux by TRPV4 agonist [4]: did not inhibit
- peak efficacy of capsaicin reduced to ([5]; 100 nM opiorphin): ~50%
- mode of inhibition versus capsaicin ([5]; no rightward-shift of capsaicin curve): non-competitively
- mechanical hypersensitivity after capsaicin injection [6]: reduced
- inhibition of calcium flux by TRPA1 agonist [7]: did not inhibit
- block of capsaicin-induced currents [8]: effectively eliminated
- effect on TRPV1 currents, external application [8]: substantially reduced
- effect on TRPV1 currents, internal application [8]: no change in TRPV1 currents was detected
- inhibition of capsaicin currents when applied into capsaicin application [8]: inhibited capsaicin currents
- ability to block capsaicin-evoked currents after pertussis toxin ([8]; PTX 1 μg/mL, 3 hours): remained intact
- inhibition of calcium flux by TRPM8 agonist [9]: did not inhibit
- inhibitory activity on pore turret mutants [10]: loss of opiorphin inhibitory activity
- inhibition of proton-induced currents [11]: strongly inhibited
- thermal hypersensitivity after capsaicin injection [12]: reduced
- inhibition of resiniferatoxin action ([13]; RTX 100 nM, HEK293 rTRPV1): inhibited the action
- antagonism of capsaicin-evoked currents across voltages ([13]; capsaicin 1 μM, HEK293 rat TRPV1): antagonized capsaicin-evoked currents at all voltages tested
- inhibition of capsaicin-induced currents [14]: inhibited capsaicin-induced currents
- inhibition at 1 µM [15]: ~50%
- inhibition of calcium flux by P2X3 agonist [16]: did not inhibit
- capsaicin-induced licking response [17]: significantly reduced

Compound: SMR3 peptide: SMR3 peptide (QRGPR; SEQ ID NO: 5) of the opiorphin family [reference compound]
- block of capsaicin-induced currents by opiorphin family peptides [8]: no such activity

Compound: sialorphin: rat peptide sialorphin (QHNPR, SEQ ID NO: 4) of the opiorphin family (listed as Rattus norvegicus) [reference compound]
- block of capsaicin-induced currents by opiorphin family peptides [8]: blocked capsaicin-induced currents

Source: patent US20210290524A1, “TOPICAL TRPV1 ANTAGONISTS AND METHODS AND COMPOSITIONS THEREOF” (CHILDREN'S MEDICAL CENTER CORPORATION, priority 2016, published 2021)
